According to patent publication US20240294478A1, “ANTI-CANCER COMPOUNDS AND METHODS OF USE” (YALE UNIVERSITY, priority 2021, published 2024):

Legend:
Type in all cases: cell-based, human
MGMT−/MMR+ cells = test: IR alkaline comet assay, LN229 MGMT-/MMR+; settings: for IR-induced comet tail (ICL formation): 200 μM; for comet tailing in the absence of IR: TMZ 200 μM, KL-50 200 μM, MMC 0.1 or 50 μM
Method: (§1) The IR alkaline comet assay, adapted for ICL detection was performed to determine if ICLs were formed in MGMT-cells treated with KL-50. In this assay, cells were sequentially exposed to genotoxins and ionizing radiation, and then analyzed by single cell alkaline gel electrophoresis. Attenuation of the IR-induced comet tail is indicative of ICL formation.
IR Alkaline Comet Assay. This assay was performed utilizing the CometAssay™ Kit (Trevigen) according to the alkaline assay protocol, with the addition of slide irradiation post-lysis. Cells were trypsinized, washed with 1×PBS, added to melted Comet LMAgarose (Trevigen), and spread on Trevigen CometSlides at a density of 1000 cells per sample in 50 μL. Lysis solution (Trevigen) with 10% DMSO was added overnight at 4° C. […] Slides were then placed in alkaline buffer (200 mM NaOH, 1 mM EDTA) for 45 min, followed by electrophoresis in 850 mL alkaline buffer for 45 min at 4° C. Slides were washed and stained with SYBR gold (Invitrogen) per Trevigen assay protocol. Slides were imaged on a Cytation 3 imaging reader (BioTek), and comets were analyzed using CometScore 2.0 software (TriTek).

[1] = test system: LN229 MGMT+/−, MMR+/− cells; test: Cell cycle analysis; settings: 20 μM
Method: FIGS. 6A-6E: Selected cell cycle analysis upon drug treatment. FIG. 6A: Percentage of cells in G1, S, and G2 cell cycle phases after treatment, as in FIGS. 5A-5C, measured using integrated nuclear (Hoechst) staining intensity. Columns, mean; error bars, SD; n=3 independent analyses.
Cell Cycle Analysis. Cell cycle analysis was performed using integrated Hoechst nucleic acid dye fluorescence intensity. Briefly, integrated Hoechst fluorescence intensity was log 2 transformed and histograms from DMSO-treated cells were used to identify the centers of the 2N and 4N DNA peaks. These values were used to normalize the 2N DNA peak to 1 and the 4N DNA peak to 2. Cells were then classified by normalized log 2 DNA content as G1 (0.75-1.25), S (1.25-1.75), or G2 (1.75-2.5) phase cells. The percentage of cells within each phase of the cell cycle was determined for each treatment condition. The three sets of Hoechst-stained cells corresponding to the three separate DNA foci stains were treated as three independent analyses.

[2] = test system: genomic DNA isolated from LN229 MGMT−/MMR+ cells; test: Genomic DNA denaturing gel electrophoresis; settings: KL-50 200 μM
Method: Genomic DNA Denaturing Gel Electrophoresis. Cells were trypsinized, washed with 1×PBS, and stored at −80° C. prior to processing. Genomic DNA was extracted with the DNeasy Blood & Tissue Kit (Qiagen) per kit protocol. A 0.7% agarose gel was prepared in 100 mM NaCl-2 mM EDTA (pH 8) and soaked in 40 mM NaOH-1 mM EDTA running buffer for 2 h. Genomic DNA (400 ng/well) was then loaded in 1×BlueJuice loading buffer (Invitrogen) and subjected to electrophoresis at 2 V/cm for 30 min, followed by 3 V/cm for 2 h. The gel was neutralized in 150 mM NaCl-100 mM Tris (pH 7.4) for 30 min, twice, and then stained with 1×SYBR Gold in 150 mM NaCl-100 mM Tris (pH 7.4) for 90 min. Imaging was performed on a ChemiDoc XRS+ Molecular Imager (Bio-Rad).

MGMT−/MMR− cells = test: IR alkaline comet assay, LN229 MGMT-/MMR-, time course; settings: time points 2-24 h
Method: as §1
IR Alkaline Comet Assay. This assay was performed utilizing the CometAssay™ Kit (Trevigen) according to the alkaline assay protocol, with the addition of slide irradiation post-lysis. Cells were trypsinized, washed with 1×PBS, added to melted Comet LMAgarose (Trevigen), and spread on Trevigen CometSlides at a density of 1000 cells per sample in 50 μL. Lysis solution (Trevigen) with 10% DMSO was added overnight at 4° C. Slides were removed from lysis buffer and irradiated to 0 or 10 Gy using an XRAD 320 X-Ray System (Precision X-Ray) at 320 kV, 12.5 mA, and 50.0 cm SSD, with a 2 mm Al filter and 20 cm×20 cm collimator. Slides were then placed in alkaline buffer (200 mM NaOH, 1 mM EDTA) for 45 min, followed by electrophoresis in 850 mL alkaline buffer for 45 min at 4° C. Slides were washed and stained with SYBR gold (Invitrogen) per Trevigen assay protocol. Slides were imaged on a Cytation 3 imaging reader (BioTek), and comets were analyzed using CometScore 2.0 software (TriTek).

Compound	IR-induced comet tail (ICL formation) (MGMT−/MMR+ cells)	comet tailing in the absence of IR (MGMT−/MMR+ cells)	G2 arrest in MGMT+/MMR+ cells [1]	G2 arrest in MGMT−/MMR− cells [1]	G2 arrest in MGMT−/MMR+ cells ([1]; 24 to 48 h)	crosslinked genomic DNA (ICL induction) [2]	DNA damage in unirradiated samples (MGMT−/MMR− cells)	DNA mobility after IR, rate of ICL formation (MGMT−/MMR− cells)
NC(=O)c1ncn2c(=O)n(CCF)nnc12 [KL-50]	reduced the % DNA in the tail to levels similar to those seen for 0.1 μM MMC	induced tailing	moderate G2 arrest	attenuated G2 arrest	increasing G2 arrest	presence of crosslinked DNA	maximal damage at 2 h	time-dependent decrease in DNA mobility
Cn1nnc2c(C(N)=O)ncn2c1=O [TMZ, 4-methyl-5-oxo-2,3,4,6,8-pentazabicyclo[4.3.0]nona-2,7,9-triene-9-carboxamide, reference compound]	did not reduce DNA migration following IR	induced tailing	moderate G2 arrest	absent		no evidence of ICL induction	maximal damage at 2 h	did not induce a statistically significant decrease in DNA migration within 24 h
